Data from patent US20040014637A1, “Mechanism for the inactivation of insulin receptor and uses in the treatment of type II diabetes” (McGill University, priority 1998, published 2004).
Blank lines part the entries; values can stand above or below the compound they belong to.

Tests used:
insulin receptor = molecular target: T1, insulin receptor (Rattus norvegicus, UniProt P15127); assay: 125I-insulin binding after preincubating endosomes (ENs containing IR) with nucleotides; details: Table 2; addition 10 mM, 37° C. 15 min; normalized to endosomes without nucleotide
T1 construct: from tissue; host or cells: rat liver; endosome (EN) and plasma membrane (PM) fractions
T1 sequence (P15127 27-759 limits assumed): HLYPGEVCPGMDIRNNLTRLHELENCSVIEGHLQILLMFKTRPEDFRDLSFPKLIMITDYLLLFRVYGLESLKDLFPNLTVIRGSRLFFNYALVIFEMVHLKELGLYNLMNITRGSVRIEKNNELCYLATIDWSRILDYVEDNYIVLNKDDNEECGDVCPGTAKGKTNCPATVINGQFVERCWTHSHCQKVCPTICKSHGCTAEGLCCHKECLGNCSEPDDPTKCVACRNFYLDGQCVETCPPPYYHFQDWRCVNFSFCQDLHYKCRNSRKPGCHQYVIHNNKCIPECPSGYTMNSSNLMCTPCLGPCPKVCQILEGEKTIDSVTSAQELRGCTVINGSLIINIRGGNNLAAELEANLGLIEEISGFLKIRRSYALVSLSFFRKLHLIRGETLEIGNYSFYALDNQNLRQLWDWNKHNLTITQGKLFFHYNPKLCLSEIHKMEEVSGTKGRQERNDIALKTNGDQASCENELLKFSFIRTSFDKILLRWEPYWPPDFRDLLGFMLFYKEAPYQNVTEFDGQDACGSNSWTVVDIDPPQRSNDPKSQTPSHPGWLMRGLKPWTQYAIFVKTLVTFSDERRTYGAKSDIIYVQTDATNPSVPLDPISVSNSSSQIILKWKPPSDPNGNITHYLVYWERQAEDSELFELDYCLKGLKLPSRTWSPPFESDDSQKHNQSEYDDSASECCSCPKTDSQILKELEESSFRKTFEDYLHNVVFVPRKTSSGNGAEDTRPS
T1 sequence (P15127 764-1383 limits assumed): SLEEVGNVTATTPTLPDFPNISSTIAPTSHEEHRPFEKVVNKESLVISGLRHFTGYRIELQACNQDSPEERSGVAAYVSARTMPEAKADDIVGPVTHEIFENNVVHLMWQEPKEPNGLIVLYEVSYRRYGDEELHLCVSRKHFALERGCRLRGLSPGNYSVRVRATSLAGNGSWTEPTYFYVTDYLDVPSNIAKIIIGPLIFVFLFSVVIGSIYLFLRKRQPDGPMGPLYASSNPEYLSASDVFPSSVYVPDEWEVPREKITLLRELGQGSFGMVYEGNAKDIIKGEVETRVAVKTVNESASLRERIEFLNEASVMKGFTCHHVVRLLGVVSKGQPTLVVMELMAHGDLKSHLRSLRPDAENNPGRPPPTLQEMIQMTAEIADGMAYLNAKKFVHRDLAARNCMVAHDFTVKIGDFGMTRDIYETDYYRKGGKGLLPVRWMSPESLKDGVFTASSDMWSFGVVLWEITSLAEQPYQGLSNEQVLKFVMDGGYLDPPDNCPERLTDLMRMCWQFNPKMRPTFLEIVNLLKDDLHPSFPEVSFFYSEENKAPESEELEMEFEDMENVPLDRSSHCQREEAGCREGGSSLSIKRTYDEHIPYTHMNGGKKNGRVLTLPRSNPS
Method: Rats were anaesthetized with ether and were injected via jugular vein with a dose (per 100 g body weight) of insulin (1.5 μg), or bpV(phen) (0.6 μmol), dissolved in 0.2 ml. phosphate buffered saline (pH 7.4) −0.1% BSA. […] Livers were rapidly excised, placed in ice-cold homogenizing buffer (50 mM HEPES (pH 7.4), 0.25 M sucrose, 1 mM PMSF, 1 MM MgCl2, 1 mM benzamidine) and minced before homogenization. […] These subcellular fractions have been characterized in detail both morphologically and biochemically.
After 10 min at room temperature, the reactions was terminated by spotting 50 μl aliquots on Whatman 3 MM filters.
In the present study we wished to assess whether other processes might be involved in reducing the association of intraendosomal insulin with its receptor. We examined the effect of incubating intact ENs containing IR with increasing concentrations of ATP on subsequently measured insulin and hGH binding in both solubilized and WGA-purified receptors.

[1] = molecular target: T2, insulin receptor kinase (IRK) (Rattus norvegicus, UniProt P15127); assay: Insulin receptor kinase (IRK) exogenous tyrosine kinase activity, Poly (Glu:Tyr) (4:1) substrate, WGA-purified IRK from preincubated cell fractions; format: biochemical
T2 construct: from tissue; host or cells: rat liver; endosome (EN) and plasma membrane (PM) fractions
T2 sequence (P15127 27-759 limits assumed): as the sequence (P15127 27-759 limits assumed) above
T2 sequence (P15127 764-1383 limits assumed): as the sequence (P15127 764-1383 limits assumed) above

[2] = molecular target: T3, insulin receptor kinase (IRK) β-subunit (Rattus norvegicus, UniProt P15127); assay: IRK β-subunit phosphotyrosine content (αPY immunoblot of WGA eluates); format: biochemical
T3 construct: from tissue; host or cells: rat liver; endosome (EN) and plasma membrane (PM) fractions
T3 sequence (P15127 27-759 limits assumed): as the sequence (P15127 27-759 limits assumed) above
T3 sequence (P15127 764-1383 limits assumed): as the sequence (P15127 764-1383 limits assumed) above
Method: The phosphotyrosine content of endosomal IRs (ENs containing IR) was determined by subjecting lectin column (WGA-Sepharose™)-purified preparations to SDS-PAGE and immunoblotting with α960 and αPY (Faure et al. (1992) J. Biol. Chem. 267, 11215-11221). […] FIG. 1B illustrates the effect of ATP on β subunit phosphotyrosine content. WGA eluates (5 μg protein) were subjected to SDS-PAGE in 7.5% gels followed by transfer of proteins to Immobilon-P membranes. Membranes were probed with αPY or α960 antibodies followed by incubation with ^125I-GAR as second antibody and exposed for autoradiography.

[3] = treatment of Type II diabetic patients; cited from earlier work
[4] = test system: intraendosomal insulin degradation; details: cited from earlier work

125I-Insulin specific binding (%), Solubilized endosomes (insulin receptor): 96.3 ± 6.4% | 125I-Insulin specific binding (%), WGA-purified endosomes (insulin receptor): 82.7 ± 5.2%
SMILES: Nc1ncnc2c1ncn2[C@@H]1O[C@H](COP(=O)(O)OP(=O)(O)O)[C@@H](O)[C@H]1O [ADP]

SMILES: Nc1ncnc2c1ncn2[C@@H]1O[C@H](COP(=O)(O)OP(=O)(O)CP(=O)(O)O)[C@@H](O)[C@H]1O [AMP—P—C—P]
Effect on level of IRK activity (FIG. 2) ([1]; 5 mM AMP-P-C-P, in the presence or absence of 1 mM ATP): no effect | 125I-Insulin specific binding (%), Solubilized endosomes (insulin receptor): 109.1 ± 0.9% | 125I-Insulin specific binding (%), WGA-purified endosomes (insulin receptor): 95.1 ± 2.0%

125I-Insulin specific binding (%), Solubilized endosomes (insulin receptor): 112.2 ± 2.8% | 125I-Insulin specific binding (%), WGA-purified endosomes (insulin receptor): 99.1 ± 1.0%
SMILES: Nc1ncnc2c1ncn2[C@@H]1O[C@H](COP(=O)(O)OP(=O)(O)NP(=O)(O)O)[C@@H](O)[C@H]1O [AMP—P—N—P]

125I-Insulin specific binding (%), Solubilized endosomes (insulin receptor): 94.5 ± 4.1% | 125I-Insulin specific binding (%), WGA-purified endosomes (insulin receptor): 105.9 ± 3.3%
SMILES: Nc1ncnc2c1ncn2[C@@H]1O[C@H](CO)[C@@H](O)[C@H]1O [Adenosine, adenosine]

SMILES: CO/C1=C\C(C)=C\[C@@H](C)[C@@H](O)[C@@H](C)C/C(C)=C/C=C/[C@H](OC)[C@@H]([C@@H](C)[C@@H](O)[C@H](C)[C@@]2(O)C[C@@H](O)[C@H](C)[C@@H](C(C)C)O2)OC1=O [Bafilomycin A1]
Effect on ability of ATP to reduce IRK activation (FIG. 4A) ([1]; 1 μM Bafilomycin A1 preincubation 30 min 37° C., then 5 and 10 mM ATP 15 min): marked attenuation | Effect on inhibition of IRK tyrosine phosphorylation and activity by 5 mM ATP ([1]; ENs containing IR incubated with 5 mM ATP): completely reversed | IRK activity in ENs after preincubation, before ATP additions ([1]; preincubation with 1 μM Bafilomycin A1, 30 min 37° C. (without: 1.3)): 1.4 pmol/10 min/10 fmol insulin binding | Level of IRK tyrosine phosphorylation at 5 mM ATP (FIG. 4B) ([2]; in the presence of Bafilomycin (1 μM), 5 mM ATP): comparable to that observed at 1 mM ATP

SMILES: O=P([O-])([O-])OP(=O)([O-])[O-].[Na+].[Na+].[Na+].[Na+] [NaPiPi, sodium pyrophosphate]
125I-Insulin specific binding (%), WGA-purified endosomes (insulin receptor): 97.8 ± 2.3%

Effect on suppression of IRK activity by 5 mM ATP (FIG. 6A) ([1]; coincubation of ENs with 0.1 mM bpV(phen)): did not prevent | IRK activity of ENs isolated from pretreated rats ([1]; rats given bpV(phen) 0.6 μmol/100 g body weight i.v., ENs at 15 min): augmented IRK activity | Effect on reduction in β-subunit tyrosine phosphorylation by 5 mM ATP (FIG. 6B) ([2]; bpV(phen) 0.1 mM in vitro or rats pretreated): did not influence the reduction
SMILES: O.O.O.OO.OO.[K+].[OH-].[V].c1cnc2c(c1)ccc1cccnc12 [bpV(phen)]

SMILES: CCN(CC)CCCC(C)Nc1ccnc2cc(Cl)ccc12 (stereo not shown) [chloroquine]
Glucose metabolism in Type II diabetic patients [3]: improve glucose metabolism | Intraendosomal insulin degradation [4]: inhibits intraendosomal insulin degradation
